The source of these data is the METLIN SMRT retention time set (Domingo-Almenara et al. 2019).

Each structure is given as a SMILES string.

A short description of the series: gradient 5% acetonitrile 3 min, to 50% in 2 min, to 85% in 15 min, held 3 min, 100 µL/min. Particulars: column: Zorbax Extend-C18 2.1 x 50 mm; eluents: water / acetonitrile, 0.1% formic acid. A digest of the protocol: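 A Zorbax Extend-C18 column (2.1 × 50 mm, 1.8 μm) run at 100 μL/min with water and acetonitrile, both containing 0.1% formic acid, separated mixtures of ~100 pure standards. The HPLC was coupled to a quadrupole time-of-flight mass spectrometer operated in positive and negative ionization mode, with dead and dwell volumes of 40 μL and 900 μL. Each retention time was taken from a computationally picked adduct peak that was then manually inspected.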
`CCc1ccc(-c2noc(Cn3c(=O)n(-c4ccc(OC)cc4)c(=O)c4sccc43)n2)cc1` displayed an RP-LC retention time of 1150 s.

On to `Cc1cccc(Cn2c(=O)n(CCNC(=O)C3CCOC3)c3ncccc32)c1` (centres undefined), for which the RP-LC retention time amounted to 698 s.

In the case of `CN1C(=O)C2CCCCN2c2ccc(C(=O)NCCc3cccs3)cc21` (centres undefined), the RP-LC retention time is 872 s.

On to `Clc1ccc(Cl)c(-c2ccc(CNC3CC3)o2)c1`, for which the RP-LC retention time stood at 698 s.

For the compound `COc1ccc(-c2cn3c(CC(=O)Nc4cccnc4)csc3n2)cc1OC`, the RP-LC retention time stood at 581 s.

`COc1ccc(-c2noc(C3CCCN3C(=O)c3ccc(N(C)C)cc3)n2)cc1` (centres undefined) showed an RP-LC retention time of 961 s.

Compound `CC(C)(C)c1ccc(C(=O)N2CCN(c3nc(CN4CCOCC4)cs3)CC2)cc1` returned an RP-LC retention time of 711 s.

As to `Cc1nn(-c2ccccc2)c(C)c1S(=O)(=O)N1CCC(C(=O)Nc2ccc3c(c2)OCCO3)CC1`, the RP-LC retention time turned out to be 914 s.

Take `O=C(Cn1cc(-c2ccccc2)c2ncn(C3CC3)c(=O)c21)Nc1ccc2c(c1)OCO2`: the RP-LC retention time came out at 826 s.

For `COc1ccccc1-n1ccnc(NC(=O)Nc2ccc(F)cc2F)c1=O`, the RP-LC retention time came to 938 s.

`COC(=O)c1c(C)[nH]c(C(=O)N2CCCC(C(=O)NCc3ccccc3C)C2)c1C` (centres undefined) came in with an RP-LC retention time of 776 s.

For `O=C1NC(=O)/C(=C\c2ccccc2Br)S1`, the RP-LC retention time came out at 821 s.

With `CCC(C)NC(=O)N1CCN(c2cc(-c3cc(F)ccc3OC)ncn2)CC1` (centres undefined), the RP-LC retention time stood at 636 s.

Regarding `CCOc1ccccc1NC(=O)Nc1nnc(Cc2ccccc2)o1`, the RP-LC retention time amounted to 845 s.

Compound `Cn1ncc2c(N3CCN(c4ccccc4F)CC3)ncnc21` gave an RP-LC retention time of 858 s.

For the compound `CC(C)NC(=O)c1ccc(OCC2CCN(C(=O)c3ccccc3F)CC2)cc1`, the RP-LC retention time turned out to be 822 s.

The compound `COc1ccc2[nH]cc(CN3CCC([C@H]4[C@@H](OC)C(=O)N4C(C)C)CC3)c2c1` gave an RP-LC retention time of 623 s.

For the compound `CN(Cc1nc2ccccc2n1Cc1ccccc1F)C(=O)c1ccco1`, the RP-LC retention time was 719 s.

With `O=C(c1ccc2nc[nH]c2c1)N1CCCN(c2cc(-c3ccc(Cl)cc3)[nH]n2)CC1`, the RP-LC retention time is 620 s.

Consider `COc1ccc(OCc2noc(CNC(=O)CCC(=O)c3ccccc3)n2)cc1`, for which the RP-LC retention time came out at 712 s.

The compound `Cc1cccc(C(=O)N2CCN(c3nnc4cccc(C)n34)CC2)c1` had an RP-LC retention time of 680 s.

`O=C(NCCCN1CCN(Cc2ccccc2)CC1)c1cn2c3c(ccc(Cl)c3c1=O)OCC2` yielded an RP-LC retention time of 634 s.

Take `COC(=O)c1ccc2c(=O)n(-c3cc(C)cc(C)c3)c(N3CCN(C(C)C)CC3)nc2c1`: the RP-LC retention time came to 695 s.

In turn, `CCOC(=O)C1CCCN(C(=O)c2ccc(SCCN3CCOCC3)nc2)C1` (centres undefined) yielded an RP-LC retention time of 616 s.

On to `COc1ccc(NC(=O)C2CC(=O)N(c3ccc4oc(C)nc4c3)C2)cc1F` (centres undefined), for which the RP-LC retention time is 733 s.

Consider `O=C(Nc1ccc2c(c1)OCO2)C1CCCN(c2ccnc(-c3ccc(F)cc3)n2)C1` (centres undefined), for which the RP-LC retention time was determined as 674 s.

With `CCN1CCN(C(=O)C2CCN(c3nnc(-c4ccc(OC)cc4)o3)CC2)CC1`, the RP-LC retention time turned out to be 593 s.

Turning to `O=C(Cn1nc(N2CCCCCC2)c2ccccc2c1=O)Nc1ccc(F)c(F)c1`, the RP-LC retention time was 1150 s.

`O=C(c1ccc(Br)cc1)N1CCN(C(=O)c2cc(-c3ccncc3)n[nH]2)CC1` had an RP-LC retention time of 616 s.

For `CC(C)NC(=O)Nc1cc2c(cc1N1CCOCC1)n(C)c(=O)n2C`, the RP-LC retention time turned out to be 634 s.

The compound `COc1cc2c(cc1OC)C(C(=O)NCCCN1CCCC1=O)C1c3ccccc3CCN1C2=O` (centres undefined) registered an RP-LC retention time of 663 s.

On to `Cc1csc(-c2cc(S(=O)(=O)Nc3ccc(Cl)cc3F)c(C)s2)n1`, for which the RP-LC retention time was 1080 s.

The compound `Cc1ccc(NC(=O)N2CCC(N3CCN(Cc4ccc(F)cc4)C(=O)C3=O)CC2)c(C)c1` displayed an RP-LC retention time of 751 s.

With `Cc1cccc(N2CCN(Cc3nc(-c4ccc(N5CCCC(C)C5)nc4)no3)CC2)c1C` (centres undefined), the RP-LC retention time worked out at 1260 s.

For `Cc1ccc2nc(-c3ccc(NC(=O)c4cc5cccnc5n(C)c4=O)cc3)sc2c1`, the RP-LC retention time was determined as 864 s.

As to `Cc1cccc(NC(=O)CN2C(=O)C3CCCCN3c3ccc(S(=O)(=O)N(C)C)cc32)c1` (centres undefined), the RP-LC retention time worked out at 607 s.

In turn, `Cc1noc2nc(CCC(=O)NCCCN3CCc4ccccc4C3)nc(N3CCOCC3)c12` gave an RP-LC retention time of 605 s.

In turn, `CCC(C)NC(=O)CC1CCN(C(=O)c2ccc3oc(C4CC4)nc3c2)CC1` (centres undefined) had an RP-LC retention time of 710 s.

Turning to `O=C1COc2cc(S(=O)(=O)N3CCCC3C(=O)NCc3ccc4c(c3)OCO4)c(Cl)cc2N1` (centres undefined), the RP-LC retention time was 725 s.

`O=C(C1CCC1)N1[C@H]2CC[C@@H]1c1cnc(-c3ccccc3)nc1C2` gave an RP-LC retention time of 876 s.

In turn, `COc1ccc(-c2nnc(SCc3cc(=O)n4ccsc4n3)o2)cc1OC` came in with an RP-LC retention time of 700 s.

As for `Cc1nc2cc(-c3noc(-c4ccc(Cl)s4)n3)ccc2o1`, the RP-LC retention time turned out to be 1230 s.

`N[C@H]1CCN(O)C1=O` gave an RP-LC retention time of 627 s.

In the case of `O=C(NCC1CCN(Cc2ccccc2F)CC1)C1CCN(c2ccc3nncn3n2)CC1`, the RP-LC retention time turned out to be 584 s.

With `CCn1ccc(C(=O)N2CCC3(CC2)NCc2ccccc2-n2ccnc23)n1`, the RP-LC retention time was 579 s.

With `CCn1ccc(NC(=O)NC2CCCC2)n1`, the RP-LC retention time came to 730 s.

For the compound `COc1ccc(S(=O)(=O)N2CCN(CCc3cn(C)c4ncccc34)CC2)cc1Cl`, the RP-LC retention time turned out to be 654 s.

`CCOC(=O)C1CCN(C(=O)C2COC3(CCCCC3)N2C(=O)c2cccc(Cl)c2)CC1` (centres undefined) displayed an RP-LC retention time of 958 s.

Consider `COc1cccc(CNC(=O)c2ccc3c(c2)nc2n3CCN(Cc3ccccn3)C2=O)c1`, for which the RP-LC retention time was 626 s.

For `CN(CC(=O)Nc1ccc2c(c1)OCO2)c1nc2c(F)cccc2s1`, the RP-LC retention time came to 828 s.

On to `CCN(CC)S(=O)(=O)c1ccc(-c2c(C)noc2C)cc1`, for which the RP-LC retention time came to 936 s.

`CCOC(=O)C1CCN(c2c(S(=O)(=O)c3ccccc3)cnc3ccc(C)cc23)CC1`: the RP-LC retention time amounted to 964 s.

Regarding `CC(=O)N1CCc2sc(C(=O)NCc3cccc(Br)c3)cc2C1`, the RP-LC retention time amounted to 768 s.

As to `COCc1nnc(NC(=O)c2ccccc2OCc2nc(-c3ccccc3)no2)s1`, the RP-LC retention time came out at 1080 s.

`CN1C(=O)c2[nH]nc(-c3ccccc3)c2C1c1ccc(O)cc1` (centres undefined) returned an RP-LC retention time of 670 s.

With `COc1cccc(-c2ccnc3nc(Cc4ccc(F)cc4)nn23)c1`, the RP-LC retention time came out at 922 s.

`Cc1cc(C)n(-c2nc(C)c(C(=O)Nc3ccccc3F)s2)n1` returned an RP-LC retention time of 1120 s.

In turn, `O=c1c(S(=O)(=O)N2CCCCCC2)cccn1Cc1cccc(F)c1` had an RP-LC retention time of 946 s.

Regarding `CCCN(CCC)S(=O)(=O)c1ccc(Br)c(OC)c1`, the RP-LC retention time stood at 1060 s.

`O=C(Nc1cccc([N+](=O)[O-])c1)c1ccc2ccccc2c1O` displayed an RP-LC retention time of 1240 s.

As for `COc1ccc(NS(=O)(=O)c2cc(-c3[nH]ncc3C(=O)N3CCCC3)oc2C)cc1`, the RP-LC retention time worked out at 676 s.

Compound `CC(C)n1c(=O)oc2cc(-c3noc(-c4ccc5cc[nH]c5c4)n3)ccc21` came in with an RP-LC retention time of 1100 s.

In the case of `Cc1ccc(S(=O)(=O)c2cnc(N3CCc4ccccc4C3)nc2N)cc1C`, the RP-LC retention time stood at 1150 s.

The compound `COc1cccc(CNC(=O)C2(C)CCCN(C(=O)Nc3ccc4c(c3)OCCO4)C2)c1` (centres undefined) gave an RP-LC retention time of 802 s.

In turn, `CCn1nnc2ccc(-c3noc(-c4ccc(NC(C)=O)cc4)n3)cc21` gave an RP-LC retention time of 807 s.

`CC(NC(=O)C(=O)N1CCOCC1)C(c1cccs1)N1CCN(c2ccccc2F)CC1` (centres undefined) showed an RP-LC retention time of 692 s.

For the compound `NS(=O)(=O)c1nn2cc(-c3ccccc3)nc2s1`, the RP-LC retention time was found to be 813 s.

Compound `Cc1cc(S(=O)(=O)N2C[C@@H](F)C[C@H]2C(=O)N2CCCCC2)ccc1F` gave an RP-LC retention time of 786 s.

As to `Cc1ccc(CNC(=O)c2nc3cccnc3n(C)c2=O)cc1`, the RP-LC retention time was determined as 787 s.

The compound `COc1ccc2c(c1)CCc1sc(NC(=O)c3ccccc3F)nc1-2` gave an RP-LC retention time of 1090 s.

Consider `Cc1ccccc1Cn1nnc2cc(C(=O)N3CCN(c4ncccn4)CC3)ccc21`, for which the RP-LC retention time was 819 s.

Turning to `O=C(NCCN1CCCCCC1)c1csc(-c2ccnc(N3CCOCC3)c2)n1`, the RP-LC retention time was found to be 569 s.

In the case of `COc1ccccc1NC(=O)Nc1c(-c2ccc(F)cc2)nc2ccccn12`, the RP-LC retention time came out at 692 s.

In turn, `CCC(C)C(NC(=O)c1cccc(N(C)C)c1)C(=O)Nc1nc2ccccc2[nH]1` (centres undefined) came in with an RP-LC retention time of 703 s.

As for `O=C(NCc1ccc(F)c(Cl)c1)c1cn(-c2ccc(NC(=O)C3CC3)cn2)cn1`, the RP-LC retention time was 801 s.

Consider `Cn1cnc2c(C(=O)NCC3CCCO3)nn(-c3ccc(Cl)cc3)c2c1=O` (centres undefined), for which the RP-LC retention time is 715 s.

For the compound `Cc1ccc(NC(=O)C2CCCN(c3nc4c(s3)c(C)nn4-c3cccc(F)c3)C2)c(C)c1` (centres undefined), the RP-LC retention time is 1280 s.

As for `CCSc1nc2ccc(NS(=O)(=O)c3ccccc3)cc2s1`, the RP-LC retention time came to 997 s.

Compound `CS(=O)(=O)N1CCN(C(=O)c2nn(CC3CC3)c3c2CNCC3)CC1` yielded an RP-LC retention time of 558 s.
